For orientation: Kd means the free concentration of one partner at which half of the binding sites on the other are occupied at equilibrium, for simple one-to-one binding. Lower therefore signals tighter binding.

The values that follow come from PMC7493682, “Caffeine Targets SIRT3 to Enhance SOD2 Activity in Mitochondria” (Frontiers in Cell and Developmental Biology, 2020).

This assay addresses T1, SIRT3 (Homo sapiens, UniProt Q9NTG7).
T1 sequence (Q9NTG7 102-399): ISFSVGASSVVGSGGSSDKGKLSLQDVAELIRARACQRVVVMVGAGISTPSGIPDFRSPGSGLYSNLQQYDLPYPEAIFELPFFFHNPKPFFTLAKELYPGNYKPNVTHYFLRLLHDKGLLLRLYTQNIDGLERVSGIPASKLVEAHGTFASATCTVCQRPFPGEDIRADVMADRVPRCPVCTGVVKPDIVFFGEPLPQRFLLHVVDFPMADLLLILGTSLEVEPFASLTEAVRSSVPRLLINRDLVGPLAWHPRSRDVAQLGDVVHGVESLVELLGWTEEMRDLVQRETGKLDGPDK
Description: SPR (Biacore S200, immobilized SIRT3); also BLI (KD […]) and activation of the pure enzyme. The class given is binding. (In SPR one partner is held on a chip, and binding of the other changes the refractive index at the surface.)

Structures are written as SMILES.

`Cn1c(=O)c2c(ncn2C)n(C)c1=O` [Caffeine, 1,3,7-trimethylxanthine]: the Kd came out at 686 nM.
